Source: the CheMixHub viscosity set
Values joined by “and” are separate entries in the source; they are usually repeats but may differ in a detail not shown here. Equal values may be shown once.

Assay: xn = mol fraction of the nth substance listed

COC(=O)c1ccccc1 + CCCCCCCCCC
101 kPa
Details	viscosity [mPa·s]
298.15 K, x2 = 0.0262	1.743
298.15 K, x2 = 0.0672	1.629
298.15 K, x2 = 0.1282	1.488
298.15 K, x2 = 0.172	1.406
298.15 K, x2 = 0.2455	1.29
298.15 K, x2 = 0.2831	1.234
298.15 K, x2 = 0.3238	1.184
298.15 K, x2 = 0.3645	1.141
298.15 K, x2 = 0.4095	1.095
298.15 K, x2 = 0.458	1.05
298.15 K, x2 = 0.5093	1.012
298.15 K, x2 = 0.563	0.972
298.15 K, x2 = 0.6077	0.946
298.15 K, x2 = 0.6694	0.915
298.15 K, x2 = 0.7276	0.891
298.15 K, x2 = 0.8044	0.868
298.15 K, x2 = 0.8571	0.855
298.15 K, x2 = 0.9293	0.845
308.15 K, x2 = 0.0467	1.4
308.15 K, x2 = 0.0764	1.34
308.15 K, x2 = 0.1148	1.271
308.15 K, x2 = 0.1464	1.219
308.15 K, x2 = 0.1853	1.163
308.15 K, x2 = 0.2147	1.12
308.15 K, x2 = 0.2537	1.076
308.15 K, x2 = 0.2939	1.031
308.15 K, x2 = 0.3391	0.988
308.15 K, x2 = 0.3803	0.956
308.15 K, x2 = 0.429	0.922
308.15 K, x2 = 0.4756	0.894
308.15 K, x2 = 0.5274	0.866
308.15 K, x2 = 0.575	0.841
308.15 K, x2 = 0.6318	0.816
308.15 K, x2 = 0.6926	0.79
308.15 K, x2 = 0.7434	0.775
308.15 K, x2 = 0.8116	0.759
308.15 K, x2 = 0.887	0.747
318.15 K, x2 = 0.0153	1.249
318.15 K, x2 = 0.0485	1.196
318.15 K, x2 = 0.0774	1.151
318.15 K, x2 = 0.113	1.101
318.15 K, x2 = 0.1467	1.058
318.15 K, x2 = 0.1837	1.015
318.15 K, x2 = 0.2171	0.977
318.15 K, x2 = 0.2582	0.936
318.15 K, x2 = 0.2931	0.903
318.15 K, x2 = 0.3395	0.863
318.15 K, x2 = 0.3892	0.826
318.15 K, x2 = 0.4363	0.795
318.15 K, x2 = 0.4972	0.76
318.15 K, x2 = 0.5486	0.734
318.15 K, x2 = 0.6025	0.713
318.15 K, x2 = 0.6669	0.692
318.15 K, x2 = 0.7208	0.678
318.15 K, x2 = 0.7971	0.663
318.15 K, x2 = 0.8627	0.655

CCCCOCCO + OCCO
101 kPa
Details	viscosity [mPa·s]
293.15 K, x1 = 0.0517	19.96
293.15 K, x1 = 0.099	18.69
293.15 K, x1 = 0.2024	15.74
293.15 K, x1 = 0.2993	13.1
293.15 K, x1 = 0.4009	10.68
293.15 K, x1 = 0.4475	9.72
293.15 K, x1 = 0.5022	8.702
293.15 K, x1 = 0.5447	7.996
293.15 K, x1 = 0.6011	7.158
293.15 K, x1 = 0.7009	5.905
293.15 K, x1 = 0.8048	4.826
293.15 K, x1 = 0.8992	3.996
293.15 K, x1 = 0.9413	3.661
298.15 K, x1 = 0.0515	16.18
298.15 K, x1 = 0.1025	15.09
298.15 K, x1 = 0.1973	12.9
298.15 K, x1 = 0.2977	10.71
298.15 K, x1 = 0.3863	9.036
298.15 K, x1 = 0.4425	8.124
298.15 K, x1 = 0.4743	7.652
298.15 K, x1 = 0.5523	6.625
298.15 K, x1 = 0.6012	6.061
298.15 K, x1 = 0.6986	5.082
298.15 K, x1 = 0.783	4.349
298.15 K, x1 = 0.8985	3.469
298.15 K, x1 = 0.9474	3.145
303.15 K, x1 = 0.0582	12.73
303.15 K, x1 = 0.098	12.07
303.15 K, x1 = 0.2036	10.21
303.15 K, x1 = 0.2996	8.621
303.15 K, x1 = 0.4	7.191
303.15 K, x1 = 0.4503	6.57
303.15 K, x1 = 0.5015	5.989
303.15 K, x1 = 0.543	5.563
303.15 K, x1 = 0.6003	5.022
303.15 K, x1 = 0.703	4.185
303.15 K, x1 = 0.8036	3.495
303.15 K, x1 = 0.8935	2.979
303.15 K, x1 = 0.95	2.691

CC(C)OCCO + CCCCCCO
viscosity [mPa·s], 101 kPa
Details	298.15 K	303.15 K	308.15 K
x1 = 0.0533	4.409	3.75	3.294
x1 = 0.1018	4.192	3.555	3.096
x1 = 0.1512	3.993	3.38	2.917
x1 = 0.2013	3.789	3.2	2.752
x1 = 0.254	3.6	3.033	2.601
x1 = 0.3074	3.4	2.857	2.449
x1 = 0.4034	3.103	2.596	2.216
x1 = 0.5044	2.834	2.374	2.028
x1 = 0.6042	2.631	2.216	1.894
x1 = 0.7118	2.449	2.079	1.79
x1 = 0.8046	2.312	1.985	1.758
x1 = 0.8418	2.305	1.991	1.777
x1 = 0.9001	2.262	1.975	1.763
x1 = 0.953	2.226	1.952	1.771

c1ccc2c(c1)CCCC2 + CCCCCCCCO
viscosity [mPa·s], 100 kPa
Details	x1 = 0.0993	x1 = 0.1995	x1 = 0.2994	x1 = 0.3997	x1 = 0.4996	x1 = 0.5996	x1 = 0.6996	x1 = 0.7994	x1 = 0.8994
293.15 K	7.58	6.37	5.34	4.49	3.8	3.25	2.83	2.53	2.31
298.15 K	6.37	5.38	4.55	3.86	3.3	2.85	2.51	2.25	2.09
303.15 K	5.39	4.59	3.92	3.35	2.89	2.52	2.22	2.01	1.88
308.15 K	4.61	3.95	3.39	2.92	2.54	2.23	1.99	1.81	1.7
313.15 K	3.95	3.42	2.97	2.58	2.26	2	1.79	1.64	1.55
318.15 K	3.42	2.99	2.61	2.29	2.02	1.8	1.63	1.51	1.43
323.15 K	2.96	2.61	2.3	2.03	1.81	1.62	1.48	1.37	1.32

c1ccc2c(c1)CCCC2 + CCCCCCCCCCCC
323.15 K, 100 kPa
Details	viscosity
x1 = 0.399	0.965 mPa·s and 0.964 mPa·s
x1 = 0.714	1.06 mPa·s

CC(C)OCCO + CCCCCCCCCCO
viscosity [mPa·s], 101 kPa
Details	298.15 K	303.15 K	308.15 K
x1 = 0.0501	11.21	9.204	7.728
x1 = 0.1066	10.53	8.634	7.235
x1 = 0.1507	10.01	8.194	6.853
x1 = 0.253	8.94	7.311	6.115
x1 = 0.3119	8.302	6.783	5.668
x1 = 0.3516	7.856	6.41	5.352
x1 = 0.4159	7.17	5.836	4.871
x1 = 0.5018	6.315	5.145	4.3
x1 = 0.6016	5.388	4.398	3.692
x1 = 0.7014	4.518	3.715	3.149
x1 = 0.8012	3.69	2.991	2.564
x1 = 0.854	3.267	2.661	2.308
x1 = 0.9003	2.873	2.385	2.097
x1 = 0.9507	2.516	2.166	1.948

C[N+](C)(C)C.[OH-] + CS(C)=O
viscosity [mPa·s], 100 kPa
Details	298.15 K	303.15 K	308.15 K	313.15 K
x1 = 0.0177	2.05	1.87	1.73	1.63
x1 = 0.0538	2.18	2.01	1.87	1.77
x1 = 0.091	2.24	2.07	1.94	1.86
x1 = 0.1294	2.34	2.18	2.06	1.98
x1 = 0.1691	2.44	2.3	2.18	2.1
x1 = 0.2101	2.55	2.42	2.3	2.23
x1 = 0.2314	2.61	2.48	2.36	2.3
x1 = 0.2961	2.76	2.64	2.54	2.48
x1 = 0.3645	2.9	2.81	2.71	2.65
x1 = 0.4366	3.04	2.94	2.86	2.81
x1 = 0.4868	3.12	3.03	2.95	2.91
x1 = 0.5388	3.18	3.1	3.02	2.98
x1 = 0.6206	3.25	3.17	3.09	3.07
x1 = 0.7071	3.26	3.2	3.12	3.1
x1 = 0.7677	3.23	3.18	3.1	3.06
x1 = 0.8307	3.15	3.12	3.05	3.02
x1 = 0.8963	3.03	3.02	2.94	2.9
x1 = 0.9647	2.86	2.84	2.76	2.71

c1ccc2c(c1)CCCC2 + C1CCCCC1
298.15 K, 101 kPa
Details	viscosity [mPa·s]
x1 = 0.1649	0.9811
x1 = 0.3447	1.127
x1 = 0.5442	1.324
x1 = 0.7597	1.619
